Laboratory results from US10278979B2, “Therapeutic agent for intractable leukemia” (RIKEN, priority 2015, dated 2019).
Entries after “also recorded” stand apart in the source; their conditions may differ.

Experiments:
[1] = test system: patient-derived MLL cells (MLL-AF9); assay: Leukemia humanized mouse (MLL-AF9), human leukemia cells in peripheral blood; format: in vivo; conditions: MLL-AF9 cases in NSG mice; dexamethasone 70 mg/kg IP daily and/or RK-20449 30 mg/kg IP BID; FIG. 1-3
Source text: (§1) NOD. Cg-Prkdc^scid Il2rg^tmlWjl/Sz (NOD/SCID/IL2rg^null, NSG) mice were developed by subjecting a complete null mutation in the Il2rg gene locus to back cross with NOD. Cg-Prkdc^scid (NOD/SCID) lineage, in the Jackson Laboratory (Bar Harbor, Me. state, USA) (Shultz, L. D. et al., Multiple defects in innate and adaptive immunologic function in NOD/LtSz-scid mouse. J. Immunol. 154, 180-191 (1995)). The mice were raised by feeding irradiated food and acidified water in the animal facilities of RIKEN and the Jackson Laboratory in accordance with the guideline established by the Institutional Animal Committees and maintained under bacterial flora specified.
(§2) NSG mice in the neonatal period were exposed to radiation (1.5 G) and then patient-derived MLL cells (MLL-AF9) were transplanted to the mice. After the presence of the human leukemia cells in the peripheral blood was confirmed by flow cytometry based on the presence of hCD45+CD19+, treatment of the mice (leukemia humanized mice) with dexamethasone (70 mg/kg IP daily) and/or RK-20449 (30 mg/kg IP BID, twice a day) or both was started.

[2] = test system: MLL cells (MLL-AF9 ALL cell) in the bone marrow; assay: Leukemia humanized mouse (MLL-AF9), human leukemia cells in bone marrow (flow cytometry, hCD45/DAB staining); format: in vivo; conditions: MLL-AF9 case; after treatment; FIG. 4
Source text: as §1, §2
After the treatment, the mice were euthanized and the appearance frequency of human leukemia cells in the bone marrow was determined by flow cytometry. At the same time, one of the femur bones was fixed in PFA and […]-thin sections were prepared. […]

[3] = test system: MLL cells (MLL-AF9 ALL cells); assay: Secondary transplantation of MLL cells remaining after treatment into neonatal NSG mice; format: in vivo, mouse; conditions: cells taken from treated primary recipient, FIG. 7
Source text: Finally, human leukemia cells remaining in the bone marrow were purified by sorting and transplanted to neonatal NSG mice (secondary transplantation).
MLL cells (MLL-AF9 ALL cells) were transplanted (primary transplant) to an immunodeficient mouse and a treatment with a combination of dexamethasone and RK-20449 was applied. Thereafter, MLL cells were taken from the mouse and transplanted to another immunodeficient mouse (secondary transplantation). The results are shown in the graphs as FIG. 7. The cases treated with dexamethasone alone and RK-20449 alone were used as controls (for comparison).

## CN1CCN([C@H]2CC[C@H](n3cc(-c4ccc(Oc5ccccc5)cc4)c4c(N)ncnc43)CC2)CC1 [RK-20449, 7-[trans-4-(4-methyl-1-piperazinyl)cyclohexyl]-5-(4-phenoxyphenyl)-7H-pyrrolo[2,3-d]pyrimidin-4-amine]
[1]
  chimerism (percentage) of human leukemia cells in the mouse peripheral blood: not easy to eradicate MLL by single use; also recorded: impossible to expect complete cure of MLL
[2]
  medicinal effect in the bone marrow (appearance frequency of human leukemia cells, flow cytometry): A sufficient therapeutic effect was not obtained
[3]
  MLL cells in secondary transplantation recipient (proliferation after transplantation): MLL cells were present in significantly high percentages
